Each molecule was assayed against T1, Jak1 (Homo sapiens, UniProt P23458) (assay: Jak Biochemical HTRF Assay (Jak1)). Details: IC50 class, recombinant GST-tagged catalytic domain, read-out: Jak1 activity.
T1 construct: using a recombinant purified GST-tagged catalytic domain for each enzyme; GST; purchased Invitrogen M4290
How it was run: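 Recombinant GST-tagged Jak1 catalytic domain was preincubated with compound and peptide substrate for 30 min at room temperature, and the reaction was then started with ATP and run 120 min. Buffer contained 2 mM DTT and 0.05% BSA. Read-out was HTRF (665/615 nm) with Eu-pY20 antibody and streptavidin-Dylight, and IC50 values came from 4-parameter fits of percent inhibition.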

T1 sequence (P23458 875-1153 limits assumed): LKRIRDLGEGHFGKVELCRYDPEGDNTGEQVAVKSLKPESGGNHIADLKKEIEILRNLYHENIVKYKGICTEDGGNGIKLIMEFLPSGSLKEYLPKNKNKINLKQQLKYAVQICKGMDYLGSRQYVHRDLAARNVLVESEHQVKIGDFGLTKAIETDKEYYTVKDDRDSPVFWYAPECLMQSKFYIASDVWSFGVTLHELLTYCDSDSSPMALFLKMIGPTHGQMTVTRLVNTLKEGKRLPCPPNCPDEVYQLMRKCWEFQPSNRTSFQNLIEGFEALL

IC50	Compound
10 to 100 nM	O=C(c1ccccc1Cl)N1CCC[C@@H]2[C@H]1CCN2c1ncnc2[nH]ccc12 [Example 29-17, 4-{(3aR,7aR)-4-[(2-chlorophenyl)carbonyl]octahydro-1H-pyrrolo[3,2-b]pyridin-1-yl}-7H-pyrrolo[2,3-d]pyrimidine]
100 to 1000 nM	O=C(OCCN1CCCC1)N1CCC[C@@H]2[C@H]1CCN2c1ncnc2[nH]ccc12 [Example 3-40, 2-pyrrolidin-1-ylethyl (3aR,7aR)-1-(7H-pyrrolo[2,3-d]pyrimidin-4-yl)octahydro-4H-pyrrolo[3,2-b]pyridine-4-carboxylate]
100 to 1000 nM	O=S(=O)(N1CCC[C@@H]2[C@H]1CCN2c1ncnc2[nH]ccc12)C(F)(F)F (single isomer, unassigned) [Example 32-5]
10 to 100 nM	Cc1cccc(COC(=O)N2CCCC3C2CCN3c2ncnc3[nH]ccc23)c1 (stereo not shown) [Example 3-16, 3-methylbenzyl 1-(7H-pyrrolo[2,3-d]pyrimidin-4-yl)octahydro-4H-pyrrolo[3,2-b]-pyridine-4-carboxylate]
1 to 10 nM	O=C(OCCCc1ccccc1)N1CCC[C@@H]2[C@H]1CCN2c1ncnc2[nH]ccc12 [Example 3-47, 3-phenylpropyl (3aR,7aR)-1-(7H-pyrrolo[2,3-d]pyrimidin-4-yl)octahydro-4H-pyrrolo[3,2-b]pyridine-4-carboxylate]
100 to 1000 nM	O=C1CCCN1CCOC(=O)N1CCC[C@@H]2[C@H]1CCN2c1ncnc2[nH]ccc12 [Example 3-36, 2-(2-oxopyrrolidin-1-yl)ethyl (3aR,7aR)-1-(7H-pyrrolo[2,3-d]pyrimidin-4-yl)octahydro-4H-pyrrolo[3,2-b]pyridine-4-carboxylate]
10 to 100 nM	C[C@H](OC(=O)N1CCCC2C1CCN2c1ncnc2[nH]ccc12)c1ccccc1 (stereo partly drawn) [Example 3-24, (1S)-1-phenylethyl 1-(7H-pyrrolo[2,3-d]pyrimidin-4-yl)octahydro-4H-pyrrolo[3,2-b]-pyridine-4-carboxylate]
10 to 100 nM	CO[C@@](C(=O)N1CCC[C@@H]2[C@H]1CCN2c1ncnc2[nH]ccc12)(c1ccccc1)C(F)(F)F [Example 19, (2R)-3,3,3-trifluoro-2-methoxy-2-phenyl-1-[(3aR,7aR)-1-(7H-pyrrolo[2,3-d]pyrimidin-4-yl)octahydro-4H-pyrrolo[3,2-b]pyridine-4-yl]propan-1-one]
10 to 100 nM	N#CCC(=O)N1CCCC2C1CCN2c1ncnc2[nH]ccc12 [Example 12, (3aS,7aS and 3aR,7aR) 3-oxo-3-[1-(7H-pyrrolo[2,3-d]pyrimidin-4-yl)octahydro-4H-pyrrolo[3,2-b]pyridin-4-yl]propanenitrile]
100 to 1000 nM	O=C(O)c1ccc(COC(=O)N2CCC[C@@H]3[C@H]2CCN3c2ncnc3[nH]ccc23)cc1 [Example 6, 4-[({[(3aR,7aR)-1-(7H-pyrrolo[2,3-d]pyrimidin-4-yl)octahydro-4H-pyrrolo[3,2-b]pyridine-4-yl]carbonyl}oxy)methyl]benzoic acid]
10 to 100 nM	O=C(OC1Cc2ccccc2C1)N1CCCC2C1CCN2c1ncnc2[nH]ccc12 (stereo not shown) [Example 3-11, 2,3-dihydro-1H-inden-2-yl 1-(7H-pyrrolo[2,3-d]pyrimidin-4-yl)octahydro-4H-pyrrolo[3,2-b]pyridine-4-carboxylate]
10 to 100 nM	O=C(OCc1ccc2ccccc2c1)N1CCCC2C1CCN2c1ncnc2[nH]ccc12 (stereo not shown) [Example 3-15, naphthalen-2-ylmethyl 1-(7H-pyrrolo[2,3-d]pyrimidin-4-yl)octahydro-4H-pyrrolo[3,2-b]pyridine-4-carboxylate]
10 to 100 nM	O=C(OCc1ccccc1)N1CCC2C1CCCN2c1ncnc2[nH]ccc12 [Example 16, (3aS,7aS and 3aR,7aR) benzyl 4-(7H-pyrrolo[2,3-d]pyrimidin-4-yl)octahydro-1H-pyrrolo[3,2-b]pyridine-1-carboxylate]
100 to 1000 nM	CN1CCCC(CCC(=O)N2CCC[C@@H]3[C@H]2CCN3c2ncnc3[nH]ccc23)C1 (stereo partly drawn) [Example 29-55, 4-{(3aR,7aR)-4-[3-(1-methylpiperidin-3-yl)propanoyl]octahydro-1H-pyrrolo[3,2-b]pyridin-1-yl}-7H-pyrrolo[2,3-d]pyrimidine]
1 to 10 nM	COc1ccc(COC(=O)N2CCCC3C2CCN3c2ncnc3[nH]ccc23)cc1 (stereo not shown) [Example 3-14, 4-methoxybenzyl 1-(7H-pyrrolo[2,3-d]pyrimidin-4-yl)octahydro-4H-pyrrolo[3,2-b]-pyridine-4-carboxylate]
10 to 100 nM	O=C(OCc1cnccn1)N1CCCC2C1CCN2c1ncnc2[nH]ccc12 (stereo not shown) [Example 3-18, pyrazin-2-ylmethyl 1-(7H-pyrrolo[2,3-d]pyrimidin-4-yl)octahydro-4H-pyrrolo[3,2-b]-pyridine-4-carboxylate]
10 to 100 nM	O=C(c1cnc2ccccc2c1)N1CCC[C@@H]2[C@H]1CCN2c1ncnc2[nH]ccc12 [Example 29-44, 3-{[(3aR,7aR)-1-(7H-pyrrolo[2,3-d]pyrimidin-4-yl)octahydro-4H-pyrrolo[3,2-b]pyridin-4-yl]carbonyl}quinoline]
10 to 100 nM	O=C(OCCCc1cccnc1)N1CCCC2C1CCN2c1ncnc2[nH]ccc12 (stereo not shown) [Example 3-5, 3-pyridin-3-ylpropyl 1-(7H-pyrrolo[2,3-d]pyrimidin-4-yl)octahydro-4H-pyrrolo[3,2-b]-pyridine-4-carboxylate]
100 to 1000 nM	CN(C)CCN(C)C(=O)c1ccc(COC(=O)N2CCC[C@@H]3[C@H]2CCN3c2ncnc3[nH]ccc23)cc1 [Example 7-5, 4-{[2-(dimethylamino)ethyl](methyl)carbamoyl}benzyl (3aR,7aR)-1-(7H-pyrrolo[2,3-d]pyrimidin-4-yl)octahydro-4H-pyrrolo[3,2-b]pyridine-4-carboxylate]
10 to 100 nM	COCCOC(=O)N1CCC[C@@H]2[C@H]1CCN2c1ncnc2[nH]ccc12 (single isomer, unassigned) [Example 3-35]
10 to 100 nM	CCCCOC(=O)N1CCCC2C1CCN2c1ncnc2[nH]ccc12 (racemic) [Example 3-3, butyl 1-(7H-pyrrolo[2,3-d]pyrimidin-4-yl)octahydro-4H-pyrrolo[3,2-b]pyridine-4-carboxylate]
10 to 100 nM	O=S(=O)(c1ccccc1)N1CCC[C@@H]2[C@H]1CCN2c1ncnc2[nH]ccc12 (single isomer, unassigned) [Example 32-6]
10 to 100 nM	O=C(c1cnccn1)N1CCC[C@@H]2[C@H]1CCN2c1ncnc2[nH]ccc12 [Example 29-13, 4-[(3aR,7aR)-4-(pyrazin-2-ylcarbonyl)octahydro-1H-pyrrolo[3,2-b]pyridin-1-yl]-7H-pyrrolo[2,3-d]pyrimidine]
10 to 100 nM	O=C(OCc1ccc(F)cc1)N1CCCC2C1CCN2c1ncnc2[nH]ccc12 (stereo not shown) [Example 3-2, 4-fluorobenzyl 1-(7H-pyrrolo[2,3-d]pyrimidin-4-yl)octahydro-4H-pyrrolo[3,2-b]-pyridine-4-carboxylate]
100 to 1000 nM	O=C(c1cccc2cccnc12)N1CCC[C@@H]2[C@H]1CCN2c1ncnc2[nH]ccc12 [Example 29-51, 8-{[(3aR,7aR)-1-(7H-pyrrolo[2,3-d]pyrimidin-4-yl)octahydro-4H-pyrrolo[3,2-b]pyridin-4-yl]carbonyl}quinoline]
10 to 100 nM	O=C(OC1CCOCC1)N1CCCC2C1CCN2c1ncnc2[nH]ccc12 (stereo not shown) [Example 3-10, tetrahydro-2H-pyran-4-yl 1-(7H-pyrrolo[2,3-d]pyrimidin-4-yl)octahydro-4H-pyrrolo[3,2-b]pyridine-4-carboxylate]

Same assay, conditions: recombinant GST-tagged catalytic domain, 31.8 μM ATP, read-out: Representative IC50 values

IC50	Compound
26 nM	N#CCC(=O)N1CCCC2C1CCN2c1ncnc2[nH]ccc12 [Example 12, (3aS,7aS and 3aR,7aR) 3-oxo-3-[1-(7H-pyrrolo[2,3-d]pyrimidin-4-yl)octahydro-4H-pyrrolo[3,2-b]pyridin-4-yl]propanenitrile]
31 nM	O=C(OCc1ccccc1)N1CCC2C1CCCN2c1ncnc2[nH]ccc12 [Example 16, (3aS,7aS and 3aR,7aR) benzyl 4-(7H-pyrrolo[2,3-d]pyrimidin-4-yl)octahydro-1H-pyrrolo[3,2-b]pyridine-1-carboxylate]

From US8937077B2, “Bicyclic diamines as janus kinase inhibitors” (Merck Sharp & Dohme Corp., priority 2010, dated 2015)
